From paper PMC6367500, “18β-glycyrrhetyl-3-O-sulfate would be a causative agent of licorice-induced pseudoaldosteronism” (Scientific Reports, 2019)

Tests used:
[1] = Concentrations of GL metabolites in plasma of a patient with pseudoaldosteronism (LC-MS/MS); format: in vivo, human
Source text: The patient was a person who had taken a Kampo formula containing licorice for 3 years (1.5 g of licorice for 1 year and 2 months, and 3 g for 1 year and 10 months). On day 0, we found a low plasma potassium level (2.1 mEq/l) and a high creatinine kinase level (364 U/l). Since low plasma renin activity and a low aldosterone level were also found, the patient was diagnosed with pseudoaldosteronism due to licorice. The administration of the Kampo formula was stopped and potassium supplementation of up to 100 mEq/day was started. In the plasma collected on day 0, we detected compound 3 at 8.6 µM, GA at 1.3 µM, and 2 at 87 nM, while 1, GL and 3MGA were not detected. On day 5, the plasma potassium level was still 2.1 mEq/l and potassium supplementation was continued. However, the plasma concentrations of 3 and GA had decreased to 3.6 µM and 0.65 µM, respectively. 2, 1, GL, and 3MGA were not detected. On day 13, the plasma potassium level was increased to 2.8 mEq/l, and the concentrations of 3 and GA were 61 nM and 11 nM, respectively. On day 14, the plasma potassium level was 3.4 mEq/l, and the concentration of 3 was 57 nM; GA was not detected. On day 18, the plasma potassium level had recovered to a normal level (4.9 mEq/l), so potassium supplementation was stopped.
Female SD rats or EHBRs (9-week-old) were anesthetized by an intraperitoneal (i.p.) injection of urethane (1 g/kg) and their jugular veins were exposed. GA suspended in 0.5% CMC was then administered orally (200 mg/kg) to the unconscious rats, and blood samples were collected from the jugular vein; urine samples were collected using a metabolic cage at an appropriate time over a 12-h period. […] Feces were homogenized in phosphate-buffered saline (PBS; 0.15 M, pH 7.2), centrifuged (1.2 × 10^4 g, 10 min), and the supernatants were collected. After 1 week as a washout period, female SD rats were anesthetized by an i.p. injection of urethane (1 g/kg) and their biliary tract was cannulated. GA (0.2 mg/kg) was injected into the jugular vein, and the bile was collected every hour for 4 h. Aliquots (10 µl) of plasma, urine, homogenate of feces, or bile were mixed with 20 µl of subtilisin (0.91 U/ml) and incubated at 37 °C for 30 min, followed by the addition of 70 µl of astragaloside IV solution (1 µg/ml in ethanol containing 0.5% formic acid, used as internal standard), and kept at −20 °C for 30 min. […] The transitions (precursor to daughter) monitored and retention times were as follows: ESI(+) 743.4 to 567.5 m/z for compound 1 (5.5 min), ESI(−) 565.5 to 96.5 m/z for 2 (6.2 min), ESI(−) 549.5 to 96.5 m/z for 3 (8.1 min), ESI(+) 647.6 to 453.6 m/z for 3MGA (9.2 min), ESI(+) 471.3 to 91.0 m/z for GA (8.8 min), ESI(+) 823.5 to 453.6 m/z for GL (10.8 min), and ESI(+) 785.4 to 143.0 m/z for astragaloside IV (3.0 min). Linear regressions over the concentration range of 32 nM to 20 µM for each compound were examined using the peak-area ratio of the compounds to their internal standards and the least-squares method (r^2 > 0.98).
The patient was a person. They provided written informed consent to the use of their blood and urine samples for this study, which was approved by the Independent Ethics Committee of Kameda General Hospital, in accordance with the Declaration of Helsinki. Their anamnesis was follows: hypertension, systemic lupus erythematosus, and antiphospholipid antibody syndrome (for 15 years), necrotic pulmonary aspergillosis (6 years ago), cerebral infarction (14 and 4 years ago, two times), and stomach cancer (3 years ago). After the operation for stomach cancer, the patient had been treated with Kracie Juzentaihoto Extract Granules for Ethical Use (Kracie Pharmaceuticals., Tokyo, Japan). […]

[2] = system: anti-3MGA-mAb; experiment: Dot-blot analysis using anti-3MGA-mAb; format: binding; conditions: 1 µg spotted on PES membrane, imaging analysis
Procedure: We confirmed the cross-reactivity of anti-3MGA-mAb against these GL metabolites. GL, GA, 3MGA, and compounds 1, 2, and 3 (1 µg each) were spotted on a polyethersulfone (PES) membrane, fixed onto the membrane, and colored using an anti-3MGA-mAb (Fig. 5A). […] Thus, the anti-3MGA-mAb cross-reacted to some extent with other metabolites of GL.
(§1) Figure 5 Dot-blot analysis and ELISA detection range of GL metabolites using anti-3MGA-monoclonal antibody (mAb). GL metabolites (1 µg each) were spotted on a PES membrane, and colored using an anti-3MGA-mAb (A). Competitive ELISA using anti-3MGA-mAb for GL metabolites was performed. Data are represented from a single analysis (n = 1) (B). […] Data are represented as mean ± S.D. (n = 3). Two-way ANOVA indicated a significant difference between GA and 3 (F1,36 = 4441, P < 0.001), concentrations (F8,36 = 315, P < 0.001), and their interactions (F8,36 = 281, P < 0.001). The calibrated line for the absorbance-concentration profile of 3 was calculated by the linear least-squares method, and the regression formula is shown in graph (C).
Anti-3MGA-mAb and 3MGA-human serum albumin (HSA)-conjugate were developed by the same protocols established in our previous studies[22],[23]. GL, GA, 3MGA, 1, 2, and 3 (1 µg each) were spotted on a Mustang^TM E positively charged PES membrane (Pall Co., East Hills, NY, USA). The membrane was then immersed into 0.1 M MES buffer (pH 4.7) containing 2% EDC and 1% NHS, and kept at room temperature for 1 h to activate the carboxyl group. After washing with distilled water, PBS containing 1% bovine serum albumin (BSA) was added to the membrane, which was shaken at room temperature for 2 h for fixation. Next, the membrane was blocked with PBS containing 5% skim milk (Morinaga-milk, Tokyo, Japan) and 0.1% Tween 20 at 4 °C overnight to reduce nonspecific adsorption. After washing twice with PBS containing 0.1% Tween 20 (T-PBS) for 5 min, the membrane was incubated with anti-3MGA-mAb and kept at room temperature for 3 h with constant agitation. The membrane was then washed twice with T-PBS for 5 min and treated with 1:500 diluted horseradish peroxidase (HRP)-labeled goat anti-mouse IgG (whole molecule; Sigma, St. Louis, MO, USA) antibody in T-PBS for 1 h with gentle shaking. Finally, the membrane was washed twice with T-PBS and once with PBS, and exposed to 1 mg/ml of freshly prepared 4-chloro-1-naphthol-0.03% H2O2 in PBS for 15 min at room temperature. The reaction was stopped by washing with distilled water, and the immunostained PES membrane was allowed to dry and then photographed. The positively stained areas were measured using Image J 1.46r (http://imageJ.nih.gov/ij).

[3] = system: anti-3MGA-mAb; experiment: Competitive ELISA using anti-3MGA-mAb; format: binding; conditions: specificity to 3MGA calibrated to 100%, n = 1
Procedure: as §1
When the specificity of the mAb to 3MGA was calibrated to 100%, the cross-reactivity for GL, GA, 1, 2, and 3 was 0.23%, 2.2%, 4.8%, 4.0%, and 23%, respectively. […] We confirmed the selectivity of the anti-3MGA-mAb in discriminating between 3 and GA and established the detectable measurement range for 3 in this ELISA system.
3MGA-HSA (1 µg/ml in 50 mM carbonate buffer, pH 9.6) was added into a 96-well plate (Nagel Nunc, Penfield, NY, USA) (100 µl in a well) and incubated at 37 °C for 1 h. After the removal of 3MGA-HSA, the wells were washed three times with T-PBS (200 µl in a well). The wells were incubated with 300 µl in a well of 5% skim milk at 4 °C overnight. After the wells had been washed with T-PBS three times, the sample solution diluted with Can Get Signal® Solution 1 (Toyobo Co., Ltd., Osaka, Japan) (50 µl in a well) and anti-3MGA-mAb (1:4,000 dilution with Can Get Signal® Solution 1) (50 µl in a well) were added to the wells, and the plate was incubated at 37 °C for 1 h. After the wells had been washed with T-PBS three times, HRP-labeled goat anti-mouse IgG (Fc specific) antibody (Sigma, 1:20,000 dilution with Can Get Signal® Solution 2) was added into the wells (100 µl in a well) and the plate was incubated at 37 °C for 1 h. Next, the wells were washed with T-PBS three times and the substrate solution (3,3′,5,5′-tetramethylbensidine, TMB solution; Fujifilm Wako Pure Chemical Corporation, Osaka, Japan) was added to the wells (100 µl in a well), followed by incubation at room temperature for 5 min. Then, the stop solution (0.5 M sulfuric acid) was added to the wells (100 µl in a well) and the optical density was measured at 450 nm/630 nm.

## CC1(C)[C@@H](O[C@H]2O[C@H](C(=O)O)[C@@H](O)[C@H](O)[C@H]2O[C@@H]2O[C@H](C(=O)O)[C@@H](O)[C@H](O)[C@H]2O)CC[C@]2(C)[C@H]3C(=O)C=C4[C@@H]5C[C@@](C)(C(=O)O)CC[C@]5(C)CC[C@@]4(C)[C@]3(C)CC[C@@H]12 [GL, glycyrrhizin, reference compound]
[1]; patient with licorice-induced pseudoaldosteronism, day 0
  plasma concentration, day 0: not detected
[1]; patient, 5 days after stopping the Kampo formula
  plasma concentration, day 5: not detected
[2]
  area of positive staining in dot-blot: not detectable
[3]
  cross-reactivity of anti-3MGA-mAb: 0.23%
